Assay results from US6642392B1 (priority 1997, dated 2003).
Where two headings read alike, the source gives them in different places.

Tests used:
Assay type in all cases: in vivo
Botrytis cinerea = experiment: Test E: gray mold, preventive spray on cucumber seedlings; conditions: for Test E disease control rating (100 = 100% disease control, 0 = no disease control): cucumber seedlings sprayed to run-off, inoculated the following day, rating relative to controls, unmarked compounds (standard test rate); for Test E disease control rating: gray mold on cucumber
Outline: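 Preventive spray on cucumber seedlings used a suspension (3% acetone, 250 ppm Trem 014), applied to run-off one day before inoculation with Botrytis cinerea spores. Plants were held 48 h at 20° C in saturated air, then 5 days at 20° C. Percent disease control was scored relative to untreated plants.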

Puccinia recondita = experiment: Test B: wheat leaf rust, preventive spray on wheat seedlings; conditions: for Test B disease control rating (100 = 100% disease control, 0 = no disease control): wheat seedlings sprayed to run-off, inoculated the following day, rating relative to controls, unmarked compounds (standard test rate); for Test B disease control rating: wheat leaf rust
Outline: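 Preventive test: P. recondita spores were applied one day after a run-off spray of compound suspension on wheat seedlings. Plants had 24 h at 20 °C in saturated air plus 6 days in a 20 °C growth chamber. Scoring is % disease control (100 = full) relative to controls.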

Pyricularia oryzae = conditions: for Test C disease control rating (100 = 100% disease control, 0 = no disease control): rice seedlings sprayed to run-off, inoculated the following day, rating relative to controls, unmarked compounds (standard test rate); for Test C disease control rating: rice blast
Phytophthora infestans = conditions: for Test D disease control rating (100 = 100% disease control, 0 = no disease control): tomato seedlings sprayed to run-off, inoculated the following day, rating relative to controls, unmarked compounds (standard test rate); for Test D disease control rating: tomato late blight
[1] = test system: Eiysiphe graminis f. sp. tritici; experiment: Test A: wheat powdery mildew, preventive spray on wheat seedlings; conditions: for Test A disease control rating (100 = 100% disease control, 0 = no disease control): wheat seedlings sprayed to run-off, inoculated the following day, rating relative to controls, unmarked compounds (standard test rate); for Test A disease control rating: wheat powdery mildew
Outline: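 Preventive test: seedlings inoculated with powdery mildew spores one day after run-off spraying of a suspension. Ratings after 7 days in a 20° C growth chamber express percent disease control versus controls.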

[2] = 100 = 100% disease control, 0 = no control, unmarked entries (standard test concentration)
[3] = 100 = 100% disease control, 0 = no control relative to controls, unmarked entries (standard test concentration)

| Compound | Test E disease control rating (100 = 100% disease control, 0 = no disease control) (Botrytis cinerea) | Test B disease control rating (100 = 100% disease control, 0 = no disease control) (Puccinia recondita) | Test C disease control rating (100 = 100% disease control, 0 = no disease control) (Pyricularia oryzae) | Test D disease control rating (100 = 100% disease control, 0 = no disease control) (Phytophthora infestans) | Test A disease control rating (100 = 100% disease control, 0 = no disease control) [1] | Test E disease control rating (Botrytis cinerea; [2]) | Test B disease control rating (Puccinia recondita; [2]) | Test C disease control rating (Pyricularia oryzae; [2]) | Test D disease control rating (Phytophthora infestans; [2]) | Test A disease control rating [1, 3] | Test E disease control rating (Botrytis cinerea; tested at 40 ppm) | Test B disease control rating (Puccinia recondita; tested at 40 ppm) | Test C disease control rating (Pyricularia oryzae; tested at 40 ppm) | Test D disease control rating (Phytophthora infestans; tested at 40 ppm) | Test A disease control rating ([1]; tested at 40 ppm) |
| --- | --- | --- | --- | --- | --- | --- | --- | --- | --- | --- | --- | --- | --- | --- | --- |
| C=CCc1ccccc1OCC(C)NC(=O)C1(C)CC1(Cl)Cl (mixture of isomers) [compound 314] | 0% | 0% | 72% | 0% | 0% |  |  |  |  |  |  |  |  |  |  |
| Cc1cccc(C#N)c1OCC(C)NC(=O)C(C#N)C(C)C(C)(C)C (mixture of isomers) [compound 280] | 0% | 0% | 74% | 0% | 56% |  |  |  |  |  |  |  |  |  |  |
| C[C@H](COc1ccccc1)NC(=O)C(C#N)C(C)(C)C (single isomer, unassigned) [1e] |  |  |  |  |  | 47% | 0% | 100% | 80% | 92% |  |  |  |  |  |
| CCCC(C#N)C(=O)NC(C)C(Oc1cc(F)ccc1C#N)c1ccccc1 (mixture of isomers) [compound 287] | 0% | 0% | 97% | 23% | 0% |  |  |  |  |  |  |  |  |  |  |
| CCc1cccc(OCC(C)NC(=O)C(C#N)C(C)(C)C)c1 (mixture of isomers) [compound 177] |  |  |  |  |  | 6% | 0% | 94% | 35% | 62% |  |  |  |  |  |
| C=CC(C)(CF)C(C#N)C(=O)NC(C)COc1cc(F)ccc1Cl (mixture of isomers) [compound 220] | 0% | 0% | 100% | 85% | 0% |  |  |  |  |  |  |  |  |  |  |
| CC(COc1c(F)cccc1F)NC(=O)C(C#N)C(C)(C)C (mixture of isomers) [29a] |  |  |  |  |  | 6% | 0% | 74% | 35% | 0% |  |  |  |  |  |
| CC(COc1ccccc1CF)NC(=O)C(C#N)C(C)(C)C (mixture of isomers) [compound 175] |  |  |  |  |  |  |  |  |  |  | 0% | 0% | 74% | 33% | 0% |
| CCC1(C(=O)NC(C)COc2cccc(F)c2)C(C)C1(Cl)Cl (mixture of isomers) [79b] |  |  |  |  |  |  |  |  |  |  | 0% | 0% | 100% | 0% | 0% |
| C=CCc1ccccc1OCC(C)NC(=O)C(C#N)C(C)(C)C (mixture of isomers) [25a] |  |  |  |  |  | 0% | 28% | 32% | 0% | 95% |  |  |  |  |  |
| CCC1(C(=O)NC(C)C=Cc2ccccc2)C(C)C1(Cl)Cl (mixture of isomers) [compound 263] | 0% | 0% | 86% | 33% | 86% |  |  |  |  |  |  |  |  |  |  |
| CC(COc1c(F)cccc1C#N)NC(=O)C(C#N)C(C)(C)C (mixture of isomers) [compound 203] |  |  |  |  |  | 0% | 28% | 91% | 0% | 0% |  |  |  |  |  |
| CCC1(C(=O)NC(C)CCc2ccccc2)C(C)C1(Cl)Cl (mixture of isomers) [compound 244] | 0% | 0% | 99% | 74% | 86% |  |  |  |  |  |  |  |  |  |  |
| CCC1(C(=O)NC(C)COc2cccc(C)c2)C(C)C1(Cl)Cl (mixture of isomers) [compound 96] |  |  |  |  |  |  |  |  |  |  | 0% | 0% | 0% | 90% | 0% |
| CCC1(C(=O)NC(C)COc2cccc(I)c2)C(C)C1(Cl)Cl (mixture of isomers) [compound 88] |  |  |  |  |  |  |  |  |  |  | 0% | 0% | 0% | 0% | 52% |
| CCC1(C(=O)NCCCc2ccccc2)C(C)C1(Cl)Cl (stereo not shown) [compound 155] |  |  |  |  |  | 0% | 0% | 86% | 23% | 71% |  |  |  |  |  |
| CCC1(C(=O)NCC=Cc2ccccc2CC#N)C(C)C1(Cl)Cl (stereo not shown) [compound 161] |  |  |  |  |  |  |  |  |  |  | 0% | 0% | 0% | 0% | 0% |
| C#CC(C)(C=C)C(C#N)C(=O)NC(C)COc1cc(Cl)ccc1F (mixture of isomers) [compound 302] | 0% | 0% | 99% | 24% | 0% |  |  |  |  |  |  |  |  |  |  |
| CC(COc1cc(Cl)ccc1C#N)NC(=O)C(C#N)C(C)(C)C (mixture of isomers) [compound 43] |  |  |  |  |  | 0% | 0% | 86% | 66% | 0% |  |  |  |  |  |
| CC(COc1ccccc1CC#N)NC(=O)C(C#N)C(C)C(C)(C)C (mixture of isomers) [compound 61] |  |  |  |  |  |  |  |  |  |  | 0% | 0% | 73% | 0% | 74% |
| CCC1(C(=O)NC(C)COc2cc(F)cc(F)c2F)C(C)C1(Cl)Cl (stereo not shown) [compound 109] |  |  |  |  |  |  |  |  |  |  | 0% | 0% | 53% | 0% | 52% |
| C=CC(C)(C)C(C#N)C(=O)NC(C)COc1cc(F)ccc1OC(F)F (mixture of isomers) [compound 294] | 0% | 0% | 99% | 24% | 0% |  |  |  |  |  |  |  |  |  |  |
| CC(COc1c(Cl)cccc1C#N)NC(=O)C(C#N)C(C)C(C)(C)C (mixture of isomers) [compound 281] | 0% | 0% | 53% | 0% | 56% |  |  |  |  |  |  |  |  |  |  |
| C[C@H](COc1cccc(F)c1)NC(=O)C(C#N)C(C)(C)C (single isomer, unassigned) [3d] |  |  |  |  |  | 0% | 0% | 100% | 99% | 92% |  |  |  |  |  |
| CCC1(C(=O)NC(C)COc2c(F)c(F)cc(F)c2F)C(C)C1(Cl)Cl (stereo not shown) [compound 249] | 0% | 0% | 94% | 0% | 0% |  |  |  |  |  |  |  |  |  |  |
| CCC1(C(=O)NC(C)COc2cc(F)c(F)cc2F)C(C)C1(Cl)Cl (stereo not shown) [compound 110] |  |  |  |  |  |  |  |  |  |  | 0% | 0% | 97% | 0% | 90% |
